“Also recorded” adds a separate entry of the source.
How the values were obtained:
[1] = test system: Caco2 organoids (WT); assay: MTS assay of mitochondrial metabolism in CRC organoids in microfluidic devices; type: cell-based; settings: 48-hour treatment
Excerpt: (§1) Precision medicine—identifying treatments for patients based on their tumor genetic profiles—has gained significant traction. […] In a non-limiting example, colorectal cancer (CRC) organoids were created by encapsulating CRC cells (Caco2 and SW480—WT; HCT116—KRASMT; and HT29—BRAFMT) in hyaluronic acid and gelatin hydrogels in microfluidic devices. Each type of CRC organoid was then subjected to a panel of clinical CRC drugs: 5-FU or oxaliplatin (1st line drugs effective in WT tumors), Tramatinib (an EGFR pathway drug effective in KRASMT tumors), and sorafenib or regorafenib (EGFR pathway drugs effective in BRAFMT tumors). Following 48-hour treatments, organoids were assessed for mitochondrial metabolism by MTS assays. There appeared to be clear differences in drug responsiveness that correlated with EGFR genetic states.

[2] = test system: SW480 organoids (WT); assay: as above; type: cell-based; settings: 48-hour treatment
Excerpt: as §1

[3] = test system: HCT116 organoids (KRASMT); assay: as above; type: cell-based, human; settings: 48-hour treatment
Excerpt: as §1

[4] = test system: HCT-116 cells; assay: Drug treatment and assessment of migration, multi-zone tumor organoid migration model (soft tumor, stiff tissue); type: cell-based, human; settings: 50 μM Marimastat in DMEM vs no drug control
Method: To assess the influence of the physical tumor microenvironment parameters on tumor cell migration, a variation of the organoids described above were […]. Instead of encapsulating homogenously mixed cells throughout the hydrogel, 3-D organoid volumes were formed first, after which a volume of 5 μL HCT-116 cells in hydrogel precursor solution was pipetted into the center of the organoid space and polymerized in place by a 1 second exposure to UV light. […] Organoid and tumor zone elastic moduli were modulated by swapping of the linear PEGDA crosslinker molecule (3.4 kDa MW) with a 4-arm PEG-acrylate molecule (10 kDa MW, Creative PEGWorks, Winston-Salem, N.C.) or 8-arm PEG-acrylate crosslinker molecule (10 kDa MW, Creative PEGWorks) to generate stiffer hydrogels. […] Fluorescent and brightfield overlay images were captured on day 3, day 7, and day 10, from which distances of migration of cells out of the tumor were determined over time using ImageJ software. […]

[5] = test system: HT29 organoids (BRAFMT); assay: MTS assay of mitochondrial metabolism in CRC organoids in microfluidic devices; type: cell-based; settings: 48-hour treatment
Excerpt: as §1

Structure (SMILES): O=c1[nH]cc(F)c(=O)[nH]1 [5-FU]
- drug sensitivity (mitochondrial metabolism by MTS) [1]: particularly sensitive
- drug sensitivity (mitochondrial metabolism by MTS) [2]: particularly sensitive
- drug sensitivity (mitochondrial metabolism by MTS) [3]: particularly sensitive

Structure (SMILES): CNC(=O)C(NC(=O)C(CC(C)C)C(O)C(=O)NO)C(C)(C)C (stereo not shown) [Marimastat, N-[2,2-dimethyl-1-(methylcarbamoyl)propyl]-2-[hydroxy-(hydroxycarbamoyl)methyl]-4-methyl-pentanamide]
- migration distance of HCT-116 cells out of the tumor ([4]; day 3, day 7 and day 10, length in pixel counts, p<0.05): significantly prevented migration
- tumor cell invasion / outward growth of HCT-116 aggregates into the surrounding 3-D environment ([4]; overlay images, day 10): reduce tumor cell invasion; also recorded: prevents outward growth of aggregates

Structure (SMILES): CNC(=O)c1cc(Oc2ccc(NC(=O)Nc3ccc(Cl)c(C(F)(F)F)c3)c(F)c2)ccn1 [regorafenib]
- drug sensitivity (mitochondrial metabolism by MTS) [5]: slight sensitivity

Structure (SMILES): CNC(=O)c1cc(Oc2ccc(NC(=O)Nc3ccc(Cl)c(C(F)(F)F)c3)cc2)ccn1 [sorafenib]
- drug sensitivity (mitochondrial metabolism by MTS) [3]: particularly sensitive

From patent publication US11047847B2, “Methods and apparatus for modeling cancer metastasis in vitro” (Wake Forest University Health Sciences, priority 2015, dated 2021)
